Drawing on patent US12398154B2, “Azaquinazoline pan-KRas inhibitors” (Mirati Therapeutics, Inc., priority 2020, dated 2025), this text covers IC50 for nine molecules.

One assay deals with KRas G12D (Homo sapiens, UniProt P01116, G12D). As to the kind of experiment: biochemical.
The target in the next assay is KRas G12V (Homo sapiens, UniProt P01116, G12V). Put plainly: biochemical.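 Also: KRas binding measured by TR-FRET displacement at room temperature, IC50 fitted from percent of control values.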
The target of another assay is KRas G12R (Homo sapiens, UniProt P01116, G12R). Put plainly: biochemical.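 Also: TR-FRET displacement assay of compound binding to KRas, read after one hour at room temperature, potency from a four-parameter fit of percent-of-control values.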
A further assay has as its system pERK in MKN1 cells. Put plainly: Inhibition of KRas phosphorylation of ERK (Cisbio HTRF pERK assay). The note with it: Homo sapiens, MKN-1, 3 h, read-out: Inhibition (HTRF IC50) of KRas-mediated Phosphorylation of ERK, MKN1. In general terms: Time-resolved FRET reads energy transfer from a long-lived donor to a nearby acceptor.
A further assay deals with pERK in PSN1 cells. Described as above. The note with it: Homo sapiens, PSN1, 3 h, read-out: Inhibition (HTRF IC50) of KRas-mediated Phosphorylation of ERK, PSN1.
The next assay relates to pERK in ASPC1 cells. Described as above. Conditions: Homo sapiens, ASPC1, read-out: Inhibition (HTRF IC50) of KRas-mediated Phosphorylation of ERK, AsPC-1.
In the next assay the test system is pERK in H727 cells. The assay is described as above. The note with it: Homo sapiens, NCI-H727, read-out: Inhibition (HTRF IC50) of KRas-mediated Phosphorylation of ERK, H727.
A further assay has as its system pERK in A549 cells. Described as above. The note with it: Homo sapiens, A549, read-out: Inhibition (HTRF IC50) of KRas-mediated Phosphorylation of ERK, A549.
The next assay deals with pERK in H460 cells. The description is as above. The note with it: Homo sapiens, NCI-H460, read-out: Inhibition (HTRF IC50) of KRas-mediated Phosphorylation of ERK, H460.
The test system of a further assay is pERK in HCT116 cells. The assay is described as above. Conditions: Homo sapiens, HCT-116, read-out: Inhibition (HTRF IC50) of KRas-mediated Phosphorylation of ERK, HCT116.
The test system of a further assay is pERK in H358 cells. Described as above. Conditions: Homo sapiens, NCI-H358, read-out: Inhibition (HTRF IC50) of KRas-mediated Phosphorylation of ERK, H358.

One may read the IC50 as the point on the concentration scale where inhibition reaches its midpoint.

Sequence of KRas G12R (P01116 1-169 isoform P01116-2 G12R): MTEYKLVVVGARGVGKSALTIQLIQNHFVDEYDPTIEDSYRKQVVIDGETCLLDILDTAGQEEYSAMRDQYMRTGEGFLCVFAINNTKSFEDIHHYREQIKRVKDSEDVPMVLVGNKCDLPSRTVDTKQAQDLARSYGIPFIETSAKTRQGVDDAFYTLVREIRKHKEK
Sequence of KRas G12D (P01116 1-169 isoform P01116-2 G12D): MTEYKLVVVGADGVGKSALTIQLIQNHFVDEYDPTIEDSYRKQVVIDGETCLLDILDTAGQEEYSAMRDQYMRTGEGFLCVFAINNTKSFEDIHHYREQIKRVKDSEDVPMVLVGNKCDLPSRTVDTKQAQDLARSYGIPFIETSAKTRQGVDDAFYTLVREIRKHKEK
Sequence of KRas G12V (P01116 1-169 isoform P01116-2 G12V): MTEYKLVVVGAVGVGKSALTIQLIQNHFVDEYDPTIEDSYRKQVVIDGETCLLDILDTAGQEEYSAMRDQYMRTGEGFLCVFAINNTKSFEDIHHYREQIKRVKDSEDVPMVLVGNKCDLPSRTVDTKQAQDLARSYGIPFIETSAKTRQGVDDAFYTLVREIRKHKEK

Take `Oc1cc(-c2ncc3c(N4CC5CC(O)C(C5)C4)nc(OC[C@@]45CCCN4C[C@H](F)C5)nc3c2F)c2c(Cl)c(F)ccc2c1` (stereo partly drawn) [Example 421, 3-(7-(8-chloro-7-fluoro-3-hydroxynaphthalen-1-yl)-8-fluoro-2-(((2R,7aS)-2-fluorotetrahydro-1H-pyrrolizin-7a(5H)-yl)methoxy)pyrido[4,3-d]pyrimidin-4-yl)-3-azabicyclo[3,2,1]octan-6-ol]: the IC50 against KRas G12D was 3 nM; against KRas G12V, at most 2 nM; on KRas G12R it was at most 2 nM; in the assay with pERK in MKN1 cells it was 4 nM; in the assay with pERK in PSN1 cells it was 1500 nM; in the assay on pERK in ASPC1 cells, 61 nM. For the same molecule, the IC50 with pERK in H727 cells was 26 nM; in the assay with pERK in A549 cells it was 39 nM; in the assay on pERK in H460 cells it was 73 nM; in the assay with pERK in HCT116 cells it was 70 nM; in the assay with pERK in H358 cells, 16 nM.

Turning to `Oc1cc(-c2ncc3c(N4CCCC5(CC(O)C5)C4)nc(OC[C@@]45CCCN4C[C@H](F)C5)nc3c2F)c2c(Cl)c(F)ccc2c1` (stereo partly drawn) [Example 425, 6-(7-(8-chloro-7-fluoro-3-hydroxynaphthalen-1-yl)-8-fluoro-2-(((2R,7aS)-2-fluorohexahydro-1H-pyrrolizin-7a-yl)methoxy)pyrido[4,3-d]pyrimidin-4-yl)-6-azaspiro[3.5]nonan-2-ol], the IC50 against KRas G12D is at most 2 nM; on KRas G12V, at most 2 nM; at KRas G12R, at most 2 nM; in the assay with pERK in MKN1 cells, 5 nM; in the assay with pERK in PSN1 cells it was 921 nM; in the assay on pERK in ASPC1 cells it was 42 nM. In addition, the IC50 was 37 nM with pERK in H727 cells; 54 nM in the assay with pERK in A549 cells; 99 nM in the assay on pERK in H460 cells; 73 nM in the assay with pERK in HCT116 cells; 12 nM in the assay on pERK in H358 cells.

As for `CN(C)C(=O)c1cc2n(n1)CCCN(c1nc(OC[C@@]34CCCN3C[C@H](F)C4)nc3c(F)c(-c4cc(O)cc5ccc(F)c(Cl)c45)ncc13)C2` [Example 427, 5-(7-(8-chloro-7-fluoro-3-hydroxynaphthalen-1-yl)-8-fluoro-2-(((2R,7aS)-2-fluorohexahydro-1H-pyrrolizin-7a-yl)methoxy)pyrido[4,3-d]pyrimidin-4-yl)-N,N-dimethyl-5,6,7,8-tetrahydro-4H-pyrazolo[1,5-a][1,4]diazepine-2-carboxamide], the IC50 at KRas G12D was at most 2 nM; on KRas G12V it was at most 2 nM; on KRas G12R, at most 2 nM; with pERK in MKN1 cells, 84 nM; with pERK in PSN1 cells, 7680 nM; with pERK in ASPC1 cells, 32 nM. Besides, the IC50 stood at 59 nM in the assay with pERK in H727 cells; 379 nM with pERK in A549 cells; 878 nM with pERK in H460 cells; 916 nM with pERK in HCT116 cells; 52 nM in the assay on pERK in H358 cells.

Regarding `CCc1c(F)ccc2cc(O)cc(-c3ncc4c(N5CCCn6nc(C(=O)N7CCN(C)CC7)cc6C5)nc(OC[C@@]56CCCN5C[C@H](F)C6)nc4c3F)c12` [Example 477, (5-(7-(8-ethyl-7-fluoro-3-hydroxynaphthalen-1-yl)-8-fluoro-2-(((2R,7aS)-2-fluorotetrahydro-1H-pyrrolizin-7a(5H)-yl)methoxy)pyrido[4,3-d]pyrimidin-4-yl)-5,6,7,8-tetrahydro-4H-pyrazolo[1,5-a][1,4]diazepin-2-yl)(4-methylpiperazin-1-yl)methanone], the IC50 at KRas G12D is at most 2 nM; at KRas G12V, at most 2 nM; against KRas G12R, at most 2 nM; in the assay with pERK in MKN1 cells, 67 nM; in the assay with pERK in PSN1 cells, at least 10000 nM; in the assay on pERK in ASPC1 cells, 61 nM. For the same molecule, the IC50 worked out at 456 nM with pERK in H727 cells; 865 nM in the assay on pERK in A549 cells; 1570 nM in the assay with pERK in H460 cells; 2840 nM with pERK in HCT116 cells; 180 nM in the assay with pERK in H358 cells.

Consider `CCc1c(F)ccc2cc(O)cc(-c3ncc4c(N5CCOCC(C)(CO)C5)nc(OC[C@@]56CCCN5C[C@H](F)C6)nc4c3F)c12` (stereo partly drawn) [Example 496, 5-ethyl-6-fluoro-4-(8-fluoro-2-(((2R,7aS)-2-fluorotetrahydro-1H-pyrrolizin-7a(5H)-yl)methoxy)-4-(6-(hydroxymethyl)-6-methyl-1,4-oxazepan-4-yl)pyrido[4,3-d]pyrimidin-7-yl)naphthalen-2-ol], for which the IC50 against KRas G12D was determined as 24 nM; at KRas G12V it was 11 nM; against KRas G12R it was 6 nM; in the assay on pERK in MKN1 cells it was 68 nM; with pERK in PSN1 cells it was 8290 nM; in the assay with pERK in ASPC1 cells, 95 nM. In addition, the IC50 is 407 nM with pERK in H727 cells; 261 nM with pERK in A549 cells; 245 nM with pERK in H460 cells; 525 nM in the assay on pERK in HCT116 cells; 117 nM in the assay on pERK in H358 cells.

For the molecule `CCc1c(F)ccc2cc(O)cc(-c3ncc4c(N5CCOC[C@@]6(C5)CC6(F)F)nc(OC[C@@]56CCCN5C[C@H](F)C6)nc4c3F)c12` [Example 498, 4-(4-((S)-1,1-difluoro-5-oxa-8-azaspiro[2.6]nonan-8-yl)-8-fluoro-2-(((2R,7aS)-2-fluorohexahydro-1H-pyrrolizin-7a-yl)methoxy)pyrido[4,3-d]pyrimidin-7-yl)-5-ethyl-6-fluoronaphthalen-2-ol], the IC50 at KRas G12D is 5 nM; against KRas G12V it was 3 nM; at KRas G12R it was 3 nM; in the assay on pERK in MKN1 cells it was 13 nM; in the assay on pERK in PSN1 cells, at least 10000 nM; with pERK in ASPC1 cells it was 47 nM. The IC50 with pERK in H727 cells was found to be 64 nM; with pERK in A549 cells, 48 nM; with pERK in H460 cells, 66 nM; in the assay with pERK in HCT116 cells, 168 nM; with pERK in H358 cells, 21 nM.

`CCc1c(F)ccc2cc(O)cc(-c3ncc4c(N5CCCn6nc(C(=O)N(C)C)c(Cl)c6C5)nc(OC[C@@]56CCCN5C[C@H](F)C6)nc4c3F)c12` [Example 504, 3-chloro-5-(7-(8-ethyl-7-fluoro-3-hydroxynaphthalen-1-yl)-8-fluoro-2-(((2R,7aS)-2-fluorohexahydro-1H-pyrrolizin-7a-yl)methoxy)pyrido[4,3-d]pyrimidin-4-yl)-N,N-dimethyl-5,6,7,8-tetrahydro-4H-pyrazolo[1,5-a][1,4]diazepine-2-carboxamide]: the IC50 on KRas G12D is at most 2 nM; on KRas G12V, at most 2 nM; against KRas G12R it was at most 2 nM; with pERK in MKN1 cells, 8 nM; with pERK in PSN1 cells, 4830 nM; with pERK in ASPC1 cells it was 4 nM. The IC50 in the assay with pERK in H727 cells worked out at 6 nM; in the assay on pERK in A549 cells it was 11 nM; in the assay with pERK in H460 cells, 53 nM; in the assay on pERK in HCT116 cells it was 81 nM; in the assay with pERK in H358 cells it was 2 nM.

`CCc1c(F)ccc2cc(O)cc(-c3ncc4c(N5CCCC6(CCS(=O)(=O)C6)C5)nc(OC[C@@]56CCCN5C[C@H](F)C6)nc4c3F)c12` (stereo partly drawn) [Example 507, 7-(7-(8-ethyl-7-fluoro-3-hydroxynaphthalen-1-yl)-8-fluoro-2-(((2R,7aS)-2-fluorohexahydro-1H-pyrrolizin-7a-yl)methoxy)pyrido[4,3-d]pyrimidin-4-yl)-2-thia-7-azaspiro[4.5]decane 2,2-dioxide]: the IC50 on KRas G12D was at most 2 nM; on KRas G12V it was at most 2 nM; at KRas G12R, 4 nM; with pERK in MKN1 cells, 7 nM; with pERK in PSN1 cells, 1950 nM; in the assay with pERK in ASPC1 cells it was 25 nM. Besides, the IC50 with pERK in H727 cells came out at 262 nM; with pERK in A549 cells, 345 nM; with pERK in H460 cells, 179 nM; with pERK in HCT116 cells it was 341 nM; with pERK in H358 cells, 40 nM.

As to `CCc1c(F)ccc2cc(O)cc(-c3ncc4c(N5CCC[C@@](C)(O)C5)nc(OC[C@@]56CCCN5[C@H](COC(=O)N5CCOCC5)CC6)nc4c3F)c12` [Example 511, ((3S,7aS)-7a-(((7-(8-ethyl-7-fluoro-3-hydroxynaphthalen-1-yl)-8-fluoro-4-((R)-3-hydroxy-3-methylpiperidin-1-yl)pyrido[4,3-d]pyrimidin-2-yl)oxy)methyl)hexahydro-1H-pyrrolizin-3-yl)methyl morpholine-4-carboxylate], the IC50 was at most 2 nM against KRas G12D; at most 2 nM on KRas G12V; at most 2 nM at KRas G12R; 2 nM in the assay with pERK in MKN1 cells; 1040 nM in the assay with pERK in PSN1 cells; 8 nM with pERK in ASPC1 cells. In addition, the IC50 came to 25 nM in the assay on pERK in H727 cells; 23 nM in the assay on pERK in A549 cells; 27 nM in the assay with pERK in H460 cells; 45 nM with pERK in HCT116 cells; 6 nM with pERK in H358 cells.
